Several values for one entry are separate records, joined by “and”; a condition that tells them apart may be missing. Identical values can stand only once.
Details: Hot wire method

CCF [fluoroethane]
Liquid
Details | thermal conductivity
233.99 K | 0.1496 W/m/K
234 K | 0.1487 W/m/K
234.01 K | 0.1487 W/m/K
234.32 K | 0.1483 W/m/K and 0.1482 W/m/K and 0.1492 W/m/K
234.57 K | 0.1496 W/m/K
234.63 K | 0.1492 W/m/K
234.64 K | 0.149 W/m/K
244.01 K | 0.1429 W/m/K
244.04 K | 0.1429 W/m/K and 0.1423 W/m/K
244.22 K | 0.1424 W/m/K
244.25 K | 0.143 W/m/K
244.26 K | 0.1433 W/m/K
244.5 K | 0.1426 W/m/K
244.51 K | 0.142 W/m/K
244.54 K | 0.1426 W/m/K
253.79 K | 0.1362 W/m/K and 0.1361 W/m/K
253.8 K | 0.1362 W/m/K
254.08 K | 0.1364 W/m/K
254.09 K | 0.1368 W/m/K and 0.1363 W/m/K
254.12 K | 0.1357 W/m/K
254.14 K | 0.135 W/m/K
254.15 K | 0.1346 W/m/K
254.36 K | 0.1352 W/m/K
254.37 K | 0.1358 W/m/K
254.41 K | 0.1355 W/m/K
254.71 K | 0.1359 W/m/K
254.75 K | 0.1355 W/m/K
254.79 K | 0.1354 W/m/K
263.94 K | 0.1286 W/m/K
263.95 K | 0.128 W/m/K and 0.1283 W/m/K
264.16 K | 0.1283 W/m/K
264.17 K | 0.1287 W/m/K
264.19 K | 0.1288 W/m/K
264.43 K | 0.1285 W/m/K
264.51 K | 0.1293 W/m/K and 0.129 W/m/K
274.37 K | 0.1215 W/m/K
274.39 K | 0.1214 W/m/K
274.4 K | 0.1213 W/m/K
274.62 K | 0.1218 W/m/K
274.64 K | 0.1224 W/m/K
274.66 K | 0.122 W/m/K
274.95 K | 0.1224 W/m/K
274.97 K | 0.1224 W/m/K
274.98 K | 0.1226 W/m/K
284.17 K | 0.1146 W/m/K
284.22 K | 0.1146 W/m/K
284.23 K | 0.1153 W/m/K
284.43 K | 0.1154 W/m/K
284.46 K | 0.1155 W/m/K
284.47 K | 0.1152 W/m/K
284.78 K | 0.1163 W/m/K
284.8 K | 0.1164 W/m/K
284.81 K | 0.1162 W/m/K
294.43 K | 0.1097 W/m/K
294.59 K | 0.1098 W/m/K
294.63 K | 0.1109 W/m/K and 0.1095 W/m/K
294.64 K | 0.1105 W/m/K
294.65 K | 0.1103 W/m/K
294.7 K | 0.1103 W/m/K
294.89 K | 0.1094 W/m/K

Gas
Details | thermal conductivity [W/m/K]
236.45 K, 86.1 kPa | 0.00838
244.29 K, 84.5 kPa | 0.00938
245.47 K, 132.2 kPa | 0.00931
246.92 K, 132.2 kPa | 0.00972
248.24 K, 132.2 kPa | 0.00989
248.83 K, 84.5 kPa | 0.00985
254.05 K, 84.5 kPa | 0.01031
255.52 K, 201.2 kPa | 0.01058
260.98 K, 132.4 kPa | 0.01112
265.31 K, 286.1 kPa | 0.01142
266.46 K, 286.1 kPa | 0.01169
275.33 K, 370.8 kPa | 0.01266
276 K, 139.9 kPa | 0.01306
276.13 K, 370.8 kPa | 0.01296
277.34 K, 370.8 kPa | 0.01294
278.06 K, 139.9 kPa | 0.01337
278.85 K, 139.9 kPa | 0.01329
286.13 K, 481.4 kPa | 0.01426
286.26 K, 271.3 kPa | 0.01438
287.56 K, 578.8 kPa | 0.01402
287.6 K, 481.4 kPa | 0.01425
287.72 K, 271.3 kPa | 0.01452
288.9 K, 481.4 kPa | 0.01448
289.14 K, 271.3 kPa | 0.0144

— the NIST ThermoML archive (doi:10.1016/j.fluid.2014.04.038)
